Results published in patent US11180511B2, “Diagnosis, treatment and prevention of neurotensin receptor-related conditions” (Friedrich-Alexander-Universitat Erlangen-Nurnberg, priority 2016, dated 2021).

What was measured:
hNTS1 = hNTS1 (Homo sapiens, UniProt P30989); assay: competitive radioligand binding, hNTS1; conditions: [^3H]NT; CHO
Experimental: (§1) Affinities for NTS1 and NTS2 as well as for dopaminergic and serotonergic receptors were determined in competitive radioligand binding assays using appropriate radioligands as shown in Table 1.

hNTS2 = hNTS2 (Homo sapiens, UniProt O95665); assay: competitive radioligand binding, hNTS2; conditions: [^3H]NT (8-13); HEK
Chain of hNTS2 (O95665 whole entry): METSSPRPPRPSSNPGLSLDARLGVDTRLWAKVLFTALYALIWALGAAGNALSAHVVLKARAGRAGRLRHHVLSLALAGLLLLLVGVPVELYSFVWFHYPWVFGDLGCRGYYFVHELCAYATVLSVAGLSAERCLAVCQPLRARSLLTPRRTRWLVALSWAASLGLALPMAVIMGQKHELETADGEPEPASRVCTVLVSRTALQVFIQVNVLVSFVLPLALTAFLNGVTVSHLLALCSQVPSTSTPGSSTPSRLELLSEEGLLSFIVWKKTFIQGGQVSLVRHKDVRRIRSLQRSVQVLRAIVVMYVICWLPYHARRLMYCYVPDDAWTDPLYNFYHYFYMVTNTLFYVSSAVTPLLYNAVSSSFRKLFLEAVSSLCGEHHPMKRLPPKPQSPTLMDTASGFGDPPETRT
Experimental: as §1

hD1 = hD1 (Homo sapiens, UniProt P21728); assay: competitive radioligand binding, hD1; conditions: [^3H] SCH 23990
Chain of hD1 (P21728 whole entry): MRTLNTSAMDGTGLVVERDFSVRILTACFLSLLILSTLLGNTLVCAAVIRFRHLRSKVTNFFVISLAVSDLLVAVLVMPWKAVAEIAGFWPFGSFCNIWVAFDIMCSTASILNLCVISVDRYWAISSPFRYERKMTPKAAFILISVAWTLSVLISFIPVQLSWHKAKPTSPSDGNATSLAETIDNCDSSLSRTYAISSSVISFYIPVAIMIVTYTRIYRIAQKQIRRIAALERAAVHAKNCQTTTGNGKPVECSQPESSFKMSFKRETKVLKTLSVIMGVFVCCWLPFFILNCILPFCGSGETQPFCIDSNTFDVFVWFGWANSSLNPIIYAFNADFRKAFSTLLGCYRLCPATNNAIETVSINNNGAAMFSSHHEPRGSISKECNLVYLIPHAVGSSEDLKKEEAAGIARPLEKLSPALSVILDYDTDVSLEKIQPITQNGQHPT
Experimental: as §1

hD2short = hD2short (Homo sapiens, UniProt P14416); assay: competitive radioligand binding, hD2short; conditions: [^3H] spiperone
Chain of hD2short (P14416 1-414 isoform P14416-2): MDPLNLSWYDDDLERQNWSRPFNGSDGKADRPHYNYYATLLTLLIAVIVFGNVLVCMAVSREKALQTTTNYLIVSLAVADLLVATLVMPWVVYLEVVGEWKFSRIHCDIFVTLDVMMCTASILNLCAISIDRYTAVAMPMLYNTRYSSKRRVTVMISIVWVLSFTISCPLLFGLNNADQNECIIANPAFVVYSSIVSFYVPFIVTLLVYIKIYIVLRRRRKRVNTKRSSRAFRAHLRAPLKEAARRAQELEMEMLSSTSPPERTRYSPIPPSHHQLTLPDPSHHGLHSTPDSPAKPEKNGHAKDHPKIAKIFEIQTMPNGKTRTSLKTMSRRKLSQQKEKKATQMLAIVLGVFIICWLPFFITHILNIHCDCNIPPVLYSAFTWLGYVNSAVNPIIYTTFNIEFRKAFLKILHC
Experimental: as §1

hD3 = hD3 (Homo sapiens, UniProt P35462); assay: competitive radioligand binding, hD3; conditions: [^3H] spiperone
Chain of hD3 (P35462 whole entry): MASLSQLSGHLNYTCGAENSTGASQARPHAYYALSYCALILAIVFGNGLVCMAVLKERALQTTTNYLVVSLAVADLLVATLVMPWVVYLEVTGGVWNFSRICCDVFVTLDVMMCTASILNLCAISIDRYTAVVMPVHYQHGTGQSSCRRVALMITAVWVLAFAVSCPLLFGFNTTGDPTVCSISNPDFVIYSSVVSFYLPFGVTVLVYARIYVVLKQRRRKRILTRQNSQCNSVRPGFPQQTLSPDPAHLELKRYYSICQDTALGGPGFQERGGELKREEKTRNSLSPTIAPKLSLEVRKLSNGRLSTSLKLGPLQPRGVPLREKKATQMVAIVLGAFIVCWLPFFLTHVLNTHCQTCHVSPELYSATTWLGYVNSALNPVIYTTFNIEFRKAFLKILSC
Experimental: as §1

p5-HT1A = target: T1, p5-HT1A (Sus scrofa, UniProt A0A4X1UTF5); assay: competitive radioligand binding, p5-HT1A; conditions: [^3H] WAY600135
T1 sequence (A0A4X1UTF5 1-422): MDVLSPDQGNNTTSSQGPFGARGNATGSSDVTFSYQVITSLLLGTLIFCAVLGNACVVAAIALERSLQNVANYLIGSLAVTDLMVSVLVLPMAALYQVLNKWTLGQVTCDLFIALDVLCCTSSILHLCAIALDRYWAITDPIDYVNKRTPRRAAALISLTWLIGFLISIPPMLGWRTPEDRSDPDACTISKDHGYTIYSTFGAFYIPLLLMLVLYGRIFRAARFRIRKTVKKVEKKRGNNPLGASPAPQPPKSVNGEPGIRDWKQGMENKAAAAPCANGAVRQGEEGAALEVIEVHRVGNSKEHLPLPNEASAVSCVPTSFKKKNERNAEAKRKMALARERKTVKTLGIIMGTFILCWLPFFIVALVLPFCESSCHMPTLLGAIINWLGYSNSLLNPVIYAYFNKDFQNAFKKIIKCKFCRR
Experimental: as §1

h5-HT2 = h5-HT2 (Homo sapiens, UniProt P28223); assay: competitive radioligand binding, h5-HT2; conditions: [^3H] ketanserin
Chain of h5-HT2 (P28223 whole entry): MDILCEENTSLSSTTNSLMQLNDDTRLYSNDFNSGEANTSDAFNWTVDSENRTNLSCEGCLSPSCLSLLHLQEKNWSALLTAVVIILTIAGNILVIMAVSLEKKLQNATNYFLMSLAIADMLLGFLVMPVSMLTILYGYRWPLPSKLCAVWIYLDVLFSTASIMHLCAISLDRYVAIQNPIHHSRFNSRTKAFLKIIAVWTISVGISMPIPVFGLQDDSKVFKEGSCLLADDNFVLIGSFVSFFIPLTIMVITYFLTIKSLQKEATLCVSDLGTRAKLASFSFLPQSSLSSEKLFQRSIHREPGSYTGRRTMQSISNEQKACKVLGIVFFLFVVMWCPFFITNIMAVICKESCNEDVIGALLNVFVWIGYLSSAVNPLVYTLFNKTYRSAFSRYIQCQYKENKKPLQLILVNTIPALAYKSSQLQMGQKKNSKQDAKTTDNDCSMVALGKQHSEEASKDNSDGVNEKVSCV
Experimental: as §1

hD2long = hD2long (Homo sapiens, UniProt P14416); assay: competitive radioligand binding, hD2long; conditions: [^3H] spiperone
Chain of hD2long (P14416 whole entry): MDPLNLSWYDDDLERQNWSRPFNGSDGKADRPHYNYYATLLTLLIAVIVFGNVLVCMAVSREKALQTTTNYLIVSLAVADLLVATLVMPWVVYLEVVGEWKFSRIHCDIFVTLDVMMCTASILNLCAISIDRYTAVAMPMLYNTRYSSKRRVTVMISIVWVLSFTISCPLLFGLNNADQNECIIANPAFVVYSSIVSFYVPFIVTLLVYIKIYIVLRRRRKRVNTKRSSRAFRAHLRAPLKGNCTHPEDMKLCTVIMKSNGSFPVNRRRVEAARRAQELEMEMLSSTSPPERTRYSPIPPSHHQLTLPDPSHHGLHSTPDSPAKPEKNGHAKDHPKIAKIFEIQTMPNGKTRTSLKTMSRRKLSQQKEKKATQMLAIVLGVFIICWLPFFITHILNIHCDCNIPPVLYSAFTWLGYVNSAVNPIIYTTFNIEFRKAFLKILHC
Experimental: as §1

pα1 = assay: competitive radioligand binding, pα1; conditions: [^3H] prazosine
hD4.4 = target: T2, hD4.4 (Homo sapiens, UniProt P21917); assay: competitive radioligand binding, hD4.4; conditions: [^3H] spiperone
T2 sequence (P21917 1-419): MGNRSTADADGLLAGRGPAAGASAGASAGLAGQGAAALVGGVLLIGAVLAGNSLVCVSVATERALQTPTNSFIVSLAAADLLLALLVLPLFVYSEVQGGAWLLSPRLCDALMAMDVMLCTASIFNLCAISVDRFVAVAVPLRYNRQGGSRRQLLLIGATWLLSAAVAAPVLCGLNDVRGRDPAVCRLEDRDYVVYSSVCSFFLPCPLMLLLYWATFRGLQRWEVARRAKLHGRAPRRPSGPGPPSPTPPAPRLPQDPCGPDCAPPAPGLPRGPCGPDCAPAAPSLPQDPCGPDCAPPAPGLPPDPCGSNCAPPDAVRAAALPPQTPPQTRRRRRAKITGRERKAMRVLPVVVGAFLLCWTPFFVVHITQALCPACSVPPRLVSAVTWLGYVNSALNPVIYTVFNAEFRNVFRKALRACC
Experimental: as §1

hD5 = hD5 (Homo sapiens, UniProt P21918); assay: competitive radioligand binding, hD5; conditions: [^3H] SCH 23990
Chain of hD5 (P21918 whole entry): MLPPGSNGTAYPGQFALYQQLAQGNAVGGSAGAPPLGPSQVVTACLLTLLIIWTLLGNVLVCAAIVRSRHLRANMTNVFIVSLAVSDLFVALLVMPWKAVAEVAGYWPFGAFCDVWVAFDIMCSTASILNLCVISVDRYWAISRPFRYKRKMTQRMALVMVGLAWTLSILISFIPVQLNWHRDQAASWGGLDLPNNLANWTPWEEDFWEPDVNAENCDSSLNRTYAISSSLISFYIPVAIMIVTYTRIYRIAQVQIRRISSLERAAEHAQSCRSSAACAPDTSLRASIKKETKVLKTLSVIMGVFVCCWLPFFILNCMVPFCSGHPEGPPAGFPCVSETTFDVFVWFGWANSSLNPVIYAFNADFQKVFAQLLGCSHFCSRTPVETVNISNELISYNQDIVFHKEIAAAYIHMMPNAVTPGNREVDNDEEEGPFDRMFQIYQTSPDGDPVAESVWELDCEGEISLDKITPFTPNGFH
Experimental: as §1

PC3 = assay: Biodistribution in xenografted nude mice, PC3 tumor uptake; assay type: in vivo, Athymic nude mice (nu/nu); conditions: i.v.
Experimental: (§2) Athymic nude mice (nu/nu) were obtained from Harlan Winkelmann GmbH (Borchen, Germany) at 4 weeks of age and were kept under standard conditions (12 h light/dark) with food and water available ad libitum. AsPC-1, PC-3 or HT29 cells were harvested and suspended in sterile PBS at a concentration of 2×10^7 cells/ml. Viable cells (2×10^6) in PBS (100 μL) were injected subcutaneously in the back. Two weeks after inoculation (tumor weight: 400-800 mg), the mice (about 10-12 weeks old with about 40 g body weight) were used for biodistribution studies.
(§3) The xenografted mice were injected with ^177Lu-14 (FAUC Lu469, 1 MBq/mouse) intravenously into the tail vein. The mice were sacrificed by cervical dislocation at 24 h and 48 h post-injection (p.i.). Tumors and other tissues (blood, lung, liver, kidneys, heart, brain, muscle and intestine) were removed and weighed. Radioactivity of the dissected tissues was determined using a γ-counter. Results were expressed as percentage of injected dose per gram of tissue (% ID/g), and tumor-to-organ ratios were calculated. Results are reported as percent injected dose per gram (% ID/g) in Table 2 and FIG. 1.

HT29 = assay: Biodistribution in xenografted nude mice, HT29 tumor uptake; assay type: in vivo, Athymic nude mice (nu/nu); conditions: i.v.
Experimental: as §2, §3

[1] = Biodistribution in xenografted nude mice, normal tissue; assay type: in vivo, Athymic nude mice (nu/nu); conditions: i.v.
Experimental: as §2, §3

PC1-3 tumors = assay: Therapy study, PC1-3 tumors, single-dose administration; assay type: in vivo, Nude mice; conditions: single dose 30±9 MBq/animal
Experimental: Nude mice bearing PC1-3 tumors at the back were used for the therapy study. One week after inoculation of the PC1-3 cells, ^177Lu-14 (FAUC Lu469) was injected in four mice at a dose of 30±9 MBq/animal. Eight additional animals were injected with saline as control animals. The body weight and the tumor diameter was measured every three days. […] The tumor inhibition growth factor was 64% after 49 days.

[2] = system: AsPC-1 tumors (human pancreas adenocarcinoma); assay: Therapy study, AsPC-1 tumors, single-dose and double-dose administration; assay type: in vivo, Nude mice
Experimental: Nude mice bearing AsPC-1 tumors (human pancreas adenocarcinoma) at the back were used for the therapy study. One week after inoculation of the AsPC-1 cells, six mice were injected with a single dose of ^177Lu-14 (FAUC Lu469) (28±6 MBq/animal, group B, single-dose administration) at day 0 and another six animals were injected with a double-dose of ^177Lu-14 (FAUC Lu469) (2×29±4 MBq/animal, group C, double-dose administration), consisting of the first dose (29 MBq/animal) at the starting day of radiotherapy (day 0) and the second dose (29 MBq/animal) at day 10 after begin of treatment. Six additional animals were injected with saline as untreated control animals (group A). The body weight and the tumor diameter were measured five times a week.

[3] = Stability in human plasma; assay type: in vitro ADME; conditions: 37° C., up to 7 days
Experimental: An aliquot of ^177Lu-14 (FAUC Lu469) in PBS (50 μL) was added to human plasma (200 μL) and incubated at 37° C. Aliquots (25 μL) were taken at various time intervals (1 h, 4 h, 24 h, 96 h, 7 days) and quenched with acetonitrile/0.1% TFA (1:1, 100 μL). The samples were centrifuged, and the supernatants were analyzed by radio-HPLC.

AsPC1 = assay: Biodistribution in xenografted nude mice, AsPC1 tumor uptake; assay type: in vivo, Athymic nude mice (nu/nu); conditions: for Uptake AsPC1 tumor: i.v.
Experimental: as §2
as §3, with “The mice were sacrificed by cervical dislocation at 24 h and 48 h post-injection (p.i.).” left out

[4] = Determination of partition coefficient (log D7.4); assay type: physicochemical; conditions: 1-octanol/PBS pH 7.4, room temperature
Experimental: The lipophilicity of ^177Lu-14 (FAUC Lu469) was assessed by determination of the water-octanol partition coefficient. 1-Octanol (0.5 mL) was added to a solution of approximately 25 kBq of ^177Lu-14 in PBS (0.5 mL, pH 7.4) and the layers were vigorously mixed for 3 min at room temperature. The tubes were centrifuged (14000 rpm, 1 min) and three samples of 100 μL of each layer were counted in a γ-counter (Wallac Wizard). The partition coefficient was determined by calculating the ratio cpm (octanol)/cpm (PBS) and expressed as log D74) log(cpmoctanol/cpmbuffer). The experiments were performed in triplicates. The log D7.4 value was determined to be −1.8±0.1 (mean value±standard deviation, n=6).

Chain of hNTS1 (P30989 whole entry): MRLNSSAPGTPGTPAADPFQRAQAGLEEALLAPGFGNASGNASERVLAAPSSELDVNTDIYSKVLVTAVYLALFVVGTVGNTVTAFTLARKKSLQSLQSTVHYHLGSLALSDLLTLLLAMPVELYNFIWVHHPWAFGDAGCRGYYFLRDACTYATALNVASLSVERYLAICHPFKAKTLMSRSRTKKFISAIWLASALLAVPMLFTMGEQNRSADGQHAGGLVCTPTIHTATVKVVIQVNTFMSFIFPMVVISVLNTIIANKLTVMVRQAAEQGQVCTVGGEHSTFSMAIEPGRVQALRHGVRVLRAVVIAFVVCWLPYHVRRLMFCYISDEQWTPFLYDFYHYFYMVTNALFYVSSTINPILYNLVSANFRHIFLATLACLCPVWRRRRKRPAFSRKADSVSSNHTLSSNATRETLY

Structure (SMILES): COc1cccc(OC)c1-c1cc(C(=O)NC2(C(=O)O)C3CC4CC(C3)CC2C4)nn1-c1ccc(-c2cn(CCCN(C)CCCNC(=O)CN3CCN(CC(=O)O)CCN(CC(=O)O)CCN(CC(=O)O)CC3)nn2)cc1C(C)C (stereo not drawn) [Compound 13]
- Ki (hNTS1): 1.9 nM
- Ki (hNTS2): 100 nM

Structure (SMILES): COc1cccc(OC)c1-c1cc(C(=O)NC2(C(=O)O)C3CC4CC(C3)CC2C4)nn1-c1ccc(-c2cn(CCCN(C)CCCNC(=O)CN3CCN(CC(=O)[O-])CCN(CC(=O)[O-])CCN(CC(=O)[O-])CC3)nn2)cc1C(C)C.[Lu+3] (stereo not drawn) [Compound 14]
- Ki (hD1): > 50 µM
- Ki (hD2short): > 50 µM
- Ki (hD3): > 50 µM
- Ki (p5-HT1A): > 50 µM
- Ki (h5-HT2): > 50 µM
- Ki (hNTS1): 0.19 nM
- Ki (hNTS2): 13 nM
- Ki (hD2long): > 50 µM
- Ki (pα1): > 50 µM
- Ki (hD4.4): > 50 µM
- Ki (hD5): > 50 µM

Structure (SMILES): COc1cccc(OC)c1-c1cc(C(=O)NC2(C(=O)O)C3CC4CC(C3)CC2C4)nn1-c1ccc(-c2cn(CCCN(C)CCCNC(=O)CN3CCN4CCN5CCN(CC3)CC(=O)[O][177Lu]([O]C(=O)C4)[O]C(=O)C5)nn2)cc1C(C)C (stereo not drawn) [^177Lu-14]
- Uptake PC3 tumor (PC3; 24 h p.i.): 15.57 % ID/g
- Uptake PC3 tumor (PC3; 48 h p.i.): 10.85 % ID/g
- Uptake HT29 tumor (HT29; 24 h p.i.): 18.64 % ID/g
- Uptake HT29 tumor (HT29; 48 h p.i.): 16.34 % ID/g
- Uptake blood ([1]; 24 h p.i.): 0.36 % ID/g
- Uptake blood ([1]; 48 h p.i.): 0.14 % ID/g
- Uptake brain ([1]; 24 h p.i.): 0.06 % ID/g
- Uptake brain ([1]; 48 h p.i.): 0.04 % ID/g
- Uptake femur ([1]; 24 h p.i.): 0.89 % ID/g
- Uptake femur ([1]; 48 h p.i.): 0.75 % ID/g
- Uptake heart ([1]; 24 h p.i.): 1.05 % ID/g
- Uptake heart ([1]; 48 h p.i.): 0.56 % ID/g
- Uptake intestine ([1]; 24 h p.i.): 1.40 % ID/g
- Uptake intestine ([1]; 48 h p.i.): 0.77 % ID/g
- Uptake kidney ([1]; 24 h p.i.): 4.54 % ID/g
- Uptake kidney ([1]; 48 h p.i.): 2.48 % ID/g
- Uptake liver ([1]; 24 h p.i.): 11.61 % ID/g
- Uptake liver ([1]; 48 h p.i.): 5.45 % ID/g
- Uptake lung ([1]; 24 h p.i.): 4.15 % ID/g
- Uptake lung ([1]; 48 h p.i.): 1.23 % ID/g
- Uptake muscle ([1]; 24 h p.i.): 0.29 % ID/g
- Uptake muscle ([1]; 48 h p.i.): 0.19 % ID/g
- Uptake spleen ([1]; 24 h p.i.): 2.40 % ID/g
- Uptake spleen ([1]; 48 h p.i.): 1.60 % ID/g
- tumor inhibition growth factor (PC1-3 tumors; after 49 days): 64%
- survival versus untreated control animals (PC1-3 tumors): significantly longer survival
- tumor growth and tumor size versus untreated control animals (PC1-3 tumors): significantly inhibited tumor growth and a reduction in tumor size
- longer survival than untreated control animals ([2]; double-dose 2×29±4 MBq/animal (group C), day 0 and day 10): +209%
- tumor growth and tumor size versus untreated control animals ([2]; single dose 28±6 MBq/animal (group B), between day 11 and 21, adjusted p=0.049): significant tumor growth inhibition and a reduction in tumor size
- Stability in human plasma (degradation products by radio-HPLC) [3]: No degradation products were observed
- Uptake AsPC1 tumor (AsPC1; 24 h p.i.): 22.36 % ID/g
- Uptake AsPC1 tumor (AsPC1; 48 h p.i.): 14.41 % ID/g
- AsPC1-tumor retention (AsPC1; day 7 p.i.): 13.2±2.1 % ID/g
- log D7.4 [4]: −1.8±0.1

Structure (SMILES): COc1cccc(OC)c1-c1cc(C(=O)NC2(C(=O)O)C3CC4CC(C3)CC2C4)nn1-c1ccc(-c2cn(CCCN(C)C[C@@H](O)CNC(=O)CN3CCN(CC(=O)O)CCN(CC(=O)O)CCN(CC(=O)O)CC3)nn2)cc1C(C)C (stereo partly drawn) [Compound 19]
- Ki (hNTS1): 1.6 nM
- Ki (hNTS2): 59 nM

Structure (SMILES): COc1cccc(OC)c1-c1cc(C(=O)NC2(C(=O)O)C3CC4CC(C3)CC2C4)nn1-c1ccc(-c2cn(CCCN(C)C[C@@H](O)CNC(=O)CN3CCN(CC(=O)[O-])CCN(CC(=O)[O-])CCN(CC(=O)[O-])CC3)nn2)cc1C(C)C.[Lu+3] (stereo partly drawn) [Compound 20]
- Ki (hNTS1): 1.4 nM
- Ki (hNTS2): 27 nM
